Laboratory results as given in patent US20250250240A1, “PHENAZINE COMPOUND FOR MEASURING BACTERIAL EFFLUX” (priority 2022, published 2025).
“Also recorded” adds a separate entry of the source.

Assays:
[1] = tested on: AcrAB efflux pump; assay: Bacterial staining (pellet colour) test for AcrAB efflux pump activity; format: cell-based, Escherichia coli; conditions: 1 μg/mL, 15 min
Protocol: The experimental protocol is the same as that described in the previous examples, except for the bacterial strains used. Briefly, compounds 29 and 392 (1 μg/mL) were added to 5 mL of a cell suspension of different E. coli strains (OD=1.5), mixed by tilting and left to stand on the table at room temperature for 15 min. The cells were then centrifuged at 3500 rpm for 10 min and rinsed with potassium phosphate buffer (PBP). The cell pellet was washed only once.

[2] = tested on: NorA efflux pump; assay: Fluorescence measurement (spectrofluorimetry, excitation 530 nm) of treated bacteria; format: cell-based, Staphylococcus aureus
Protocol: (§1) Bacterial strains: The inventors used the following strains of Staphylococcus aureus: • CIP 76.25, a reference strain producing a basal level of NorA, • SA1199, a reference strain producing a basal level of NorA, • SA 1199B, an overproducer of the NorA pump, and • SA K1758 with the NorA gene deleted, (Kaatz et al., 2003, Antimicrob Agents Chemother. 2003 February; 47(2): 719-26).
(§2) Fluorescence measurement: Bacteria in exponential growth phase are incubated for 15 min in the presence of compound 053. The optical density at 600 nm is then adjusted to 0.5 and 50 μL is transferred to a black microtiter plate. Fluorescence is read in a Tecan M200 microplate reader.

[3] = tested on: NorA efflux pump; assay: Bacterial staining (pellet colour) test for NorA efflux pump activity; format: cell-based, Staphylococcus aureus; conditions: 0.75 μg/mL, 15 min
Protocol: as §1
(§3) Bacterial staining: Bacteria in exponential growth phase are incubated for 15 min in the presence of compound 053. The bacteria are then washed twice in phosphate buffer and centrifuged, with the pellets observed with the naked eye.
The following protocol was followed: • 1. Grow bacteria on a freshly prepared Muller Hilton-II (MH-II) agar plate. Incubate the Petri dish overnight at 37° C. (Note: Incubation temperature and growth time depend on the bacteria used in the experiment). • 2. The next morning, pick one or two colonies from the overnight plate and inoculate them in an Erlenmeyer flask containing 20 mL MH-II broth. • 3. Incubate the Erlenmeyer on an orbital shaker at 37° C. and 160 rpm for 3-4 hrs. Note: This step allows us to obtain cells in exponential phase, so we need to consider the doubling time of the bacteria used. • 4. After incubation, transfer the cells to a centrifuge tube and centrifuge at 4500 rpm for 10 minutes. Discard supernatant. Add fresh MH-II broth to the centrifuge tube and adjust the optical density of the cells to 0.5. • 5. Transfer an aliquot (5 mL) of cells with adjusted optical density to a new centrifuge tube (50 mL). Add 3.75 μL of compound 053 stock solution (1000 μg/mL) to this tube. Cap the tubes and shake thoroughly to mix the compound. Then keep the centrifuge tube on the table for 15 minutes at room temperature. Note: It is preferable to have a larger surface area to facilitate agitation. The final concentration of 053 used in the experiment is 0.75 μg/mL. […] After 15 minutes contact time, centrifuge the tubes for 10-15 minutes at 4500 rpm to obtain cell pellets and discard supernatant. […]

[4] = tested on: PatA-PatB transporter; assay: Bacterial staining (pellet colour) test on PatA-PatB transporter mutants; format: cell-based, Streptococcus pneumoniae; conditions: 1 μg/mL
Protocol: as §3
(§4) The following protocol was followed: • 1. Grow bacteria on a freshly prepared Muller Hilton-II (MH-II) agar plate. Incubate the Petri dish overnight at 37° C. (Note: Incubation temperature and growth time depend on the bacteria used in the experiment). • 2. The next morning, pick one or two colonies from the overnight plate and inoculate them in an Erlenmeyer flask containing 20 mL MH-II broth. • 3. Incubate the Erlenmeyer on an orbital shaker at 37° C. and 160 rpm for 3-4 hrs. Note: This step allows us to obtain cells in exponential phase, so we need to consider the doubling time of the bacteria used. • 4. After incubation, transfer the cells to a centrifuge tube and centrifuge at 4500 rpm for 10 minutes. Discard supernatant. Add fresh MH-II broth to the centrifuge tube and adjust the optical density of the cells to 0.5. • 5. Transfer an aliquot (5 mL) of cells with adjusted optical density to a new centrifuge tube (50 mL). Add 3.75 μL of compound 053 stock solution (1000 μg/mL) to this tube. Cap the tubes and shake thoroughly to mix the compound. Then keep the centrifuge tube on the table for 15 minutes at room temperature. Note: It is preferable to have a larger surface area to facilitate agitation. […] After 15 minutes contact time, centrifuge the tubes for 10-15 minutes at 4500 rpm to obtain cell pellets and discard supernatant. Using 5 mL of phosphate- or potassium phosphate-buffered saline (PBS, pH7), wash the cell pellets thoroughly (PBS, pH7), repeating this operation twice. Note: Pipette several times with a 5 mL or 1 mL pipette during washing. Make sure there are no lumps during pipetting. The purpose of washing is to remove excess dye from the cell surface. • 7. The color variation in the cells is visible to the naked eye on the cell pellet after the two washes. • a. […]

[5] = tested on: NorA efflux pump; assay: Relative fluorescence intensity of treated strains fixed with PFA or ethanol; format: cell-based, Staphylococcus aureus; conditions: fixing agent 1% w/v PFA or 70% cold ethanol; CIP 76.25, SA, SA1199B, SA K1758
From the text: (§5) The results are consistent with those obtained previously. […] The inventors also tested the impact that a fixing agent such as 1% w/v paraformaldehyde (PFA) or 70% cold ethanol might have on cells treated with compound 053.

[6] = target: T1, BmrA efflux pump (Bacillus subtilis, UniProt O06967); assay: Fluorescence measurement (spectrofluorimetry) on BmrA efflux pump mutants; format: cell-based
T1 construct: endogenous in cells; host or cells: Bacillus subtilis 168 (DSM 402), BmrA+++ overproducer, BmrA deletion strain
Protocol: as §2
(§6) Bacterial strains: The inventors used • the reference strain Bacillus subtilis 168 (DSM 402) producing a basal level of BmrA, • Bacillus subtilis BmrA+++ overproducing the BmrA pump and • Bacillus subtilis BmrA Δ with the BmrA gene deleted. • (see Steinfels E et al. Biochemistry 43:7491-7502 and Krügel Het al. FEMS Microbiol Lett. 2010 December; 313(2): 155-63).
(§7) The protocols used are identical to those used in example 2-1.

[7] = tested on: BmrA efflux pump; assay: as above; format: cell-based, Bacillus subtilis; conditions: pump-free mutant (BmrAΔ)
Protocol: as §2, §6, §7

[8] = target: T1, BmrA efflux pump; assay: Bacterial staining (pellet colour) test on BmrA efflux pump mutants; format: cell-based; conditions: 0.75 μg/mL
Protocol: as §3
as §4, with “agitation. The final concentration of 053 used in the experiment is 0.75 μg/mL.” for “agitation.”

[9] = tested on: BmrA efflux pump; assay: as above; format: cell-based, Bacillus subtilis; conditions: BmrAΔ (BmrA deleted); 0.75 μg/mL
Protocol: as §3
as §4, with “agitation. The final concentration of 053 used in the experiment is 0.75 μg/mL.” for “agitation.”

[10] = target: T2, AcrAB efflux pump (Escherichia coli, UniProt P31224); assay: Pellet colour test for AcrAB efflux pump activity in strains pretreated with CCCP; format: cell-based; conditions: 1 μg/mL; cells pretreated 1 hr with CCCP 5 μg/mL; EC, AG100, AG100A versus AG102
T2 construct: strain AG100 is the wild-type strain of E. coli (Wild) also showing normal efflux; endogenous in cells; host or cells: Escherichia coli ATCC11775, AG100 (wild type), AG102 (AcrAB overexpressing), AG100A (acrAB deleted)
Protocol: The inventors also tested compound 053 (1 μg/mL) on the same Escherichia coli strains with varying levels of AcrAB efflux pump expression. The protocol was slightly modified to introduce a pre-treatment step with Carbonyl Cyanide m-Chlorophenylhydrazone (CCCP). CCCP is a chemical inhibitor of oxidative phosphorylation. It interferes with the transmembrane electrochemical gradient and proton-motive force, and consequently reduces ATP production. The effect of CCCP is to reduce the efficiency of efflux pumps, making it easier to perceive differences in staining between different strains.
The experimental protocol is the same as that described in the examples, with the difference that cells are treated for 1 hr with CCCP (5 μg/mL) in phosphate buffer (PPB). After CCP treatment, the whole experiment is run in PPB instead of MH-II broth from step 4 onwards.

[11] = tested on: NorA efflux pump; assay: Fluorescence reading by flow cytometry of treated bacteria; format: cell-based, Staphylococcus aureus
From the text: The inventors also carried out a fluorescence reading by flow cytometry in order to validate the results previously obtained by spectrofluorimetry. Advantageously, flow cytometry considers only the fluorescence within the cell and not surrounding it, thus enabling direct assessment of the concentration of compound 053 within the cell without the need for rinsing.
as §5

[12] = strain AG100 (wild-type), normal efflux
[13] = strain AG102 (AcrAB overexpression)
[14] = strain EC (ATCC11775), normal efflux
[15] = strain SA 1199B (NorA overproducer)

T1 sequence (O06967 whole entry): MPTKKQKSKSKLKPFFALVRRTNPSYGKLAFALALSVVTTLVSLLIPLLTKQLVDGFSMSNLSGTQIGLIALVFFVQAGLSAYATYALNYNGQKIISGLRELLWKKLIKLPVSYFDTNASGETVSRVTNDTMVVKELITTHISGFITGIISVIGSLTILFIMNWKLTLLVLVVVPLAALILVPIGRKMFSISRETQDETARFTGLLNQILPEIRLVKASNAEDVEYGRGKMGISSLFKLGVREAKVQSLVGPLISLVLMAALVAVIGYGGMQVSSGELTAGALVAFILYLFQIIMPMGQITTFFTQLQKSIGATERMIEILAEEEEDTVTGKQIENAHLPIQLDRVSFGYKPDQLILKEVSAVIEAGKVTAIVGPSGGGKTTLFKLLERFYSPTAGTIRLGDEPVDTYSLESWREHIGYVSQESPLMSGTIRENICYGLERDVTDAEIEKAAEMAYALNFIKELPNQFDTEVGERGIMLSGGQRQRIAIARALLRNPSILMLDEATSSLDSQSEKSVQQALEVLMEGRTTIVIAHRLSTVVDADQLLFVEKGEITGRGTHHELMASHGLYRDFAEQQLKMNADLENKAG
T2 sequence (P0AE06 25-397): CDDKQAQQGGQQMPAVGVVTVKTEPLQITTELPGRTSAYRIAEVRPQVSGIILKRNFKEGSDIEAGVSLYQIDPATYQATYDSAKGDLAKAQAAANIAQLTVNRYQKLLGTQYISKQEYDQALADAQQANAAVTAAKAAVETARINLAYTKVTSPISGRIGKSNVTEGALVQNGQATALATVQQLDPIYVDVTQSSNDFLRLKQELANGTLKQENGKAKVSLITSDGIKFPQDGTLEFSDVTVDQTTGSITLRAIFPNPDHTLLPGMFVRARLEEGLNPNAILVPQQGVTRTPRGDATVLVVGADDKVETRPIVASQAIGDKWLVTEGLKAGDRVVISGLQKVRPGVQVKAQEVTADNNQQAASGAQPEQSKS
T2 sequence (P02930 23-493, further chain): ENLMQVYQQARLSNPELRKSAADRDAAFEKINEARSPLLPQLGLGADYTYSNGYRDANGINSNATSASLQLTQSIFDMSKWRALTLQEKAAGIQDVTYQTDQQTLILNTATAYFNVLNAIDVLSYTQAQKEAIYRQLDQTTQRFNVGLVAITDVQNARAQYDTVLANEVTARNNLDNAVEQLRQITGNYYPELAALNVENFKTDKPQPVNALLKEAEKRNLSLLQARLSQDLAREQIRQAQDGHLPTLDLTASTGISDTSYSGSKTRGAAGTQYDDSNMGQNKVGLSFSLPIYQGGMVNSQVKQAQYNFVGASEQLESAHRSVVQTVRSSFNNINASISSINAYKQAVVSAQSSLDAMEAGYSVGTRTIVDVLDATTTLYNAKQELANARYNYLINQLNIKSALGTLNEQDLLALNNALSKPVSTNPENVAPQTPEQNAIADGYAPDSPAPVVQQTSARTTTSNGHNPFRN
T2 sequence (P31224 whole entry): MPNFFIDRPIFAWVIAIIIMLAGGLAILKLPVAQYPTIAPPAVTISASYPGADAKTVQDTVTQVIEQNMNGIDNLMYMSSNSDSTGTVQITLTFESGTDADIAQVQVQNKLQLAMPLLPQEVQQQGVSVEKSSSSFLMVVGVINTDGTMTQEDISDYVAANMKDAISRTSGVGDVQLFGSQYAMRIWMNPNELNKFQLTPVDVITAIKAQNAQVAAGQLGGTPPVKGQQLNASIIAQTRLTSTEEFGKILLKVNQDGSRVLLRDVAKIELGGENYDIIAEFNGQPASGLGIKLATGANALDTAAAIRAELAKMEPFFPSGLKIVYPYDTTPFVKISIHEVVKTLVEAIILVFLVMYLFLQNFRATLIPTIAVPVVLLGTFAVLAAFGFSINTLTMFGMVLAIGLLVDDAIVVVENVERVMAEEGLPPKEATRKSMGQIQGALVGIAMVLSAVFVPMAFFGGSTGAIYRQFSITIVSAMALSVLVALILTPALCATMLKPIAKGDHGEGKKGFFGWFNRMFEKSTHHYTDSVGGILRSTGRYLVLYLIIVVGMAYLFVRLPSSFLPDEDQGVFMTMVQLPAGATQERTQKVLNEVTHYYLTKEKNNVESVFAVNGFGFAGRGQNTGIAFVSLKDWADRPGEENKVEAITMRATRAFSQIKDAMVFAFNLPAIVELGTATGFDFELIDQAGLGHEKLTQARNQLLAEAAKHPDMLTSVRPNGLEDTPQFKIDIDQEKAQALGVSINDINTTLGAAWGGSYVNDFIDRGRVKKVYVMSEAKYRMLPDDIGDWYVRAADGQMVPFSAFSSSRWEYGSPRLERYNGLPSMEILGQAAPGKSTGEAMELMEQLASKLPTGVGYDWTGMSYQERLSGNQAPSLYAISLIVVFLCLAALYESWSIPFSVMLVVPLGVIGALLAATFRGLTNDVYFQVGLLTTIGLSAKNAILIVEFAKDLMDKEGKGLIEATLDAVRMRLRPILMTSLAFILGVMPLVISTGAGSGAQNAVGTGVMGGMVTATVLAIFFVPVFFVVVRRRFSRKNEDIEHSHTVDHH

Structure (SMILES): CCCCNc1ccc2nc3cc(NCCC)c(N)cc3[n+](CCCC)c2c1 [compound 29]
- staining of bacteria (pellet colour) [1, 12]: very pale pink
- staining of bacteria (pellet colour) ([1]; strain AG100A (acrAB deleted)): dark pink stain
- staining of bacteria (pellet colour) [1, 13]: unstained
- staining of bacteria (pellet colour) [1, 14]: very pale pink

Structure (SMILES): CCCCNc1ccc2nc3cc(NCCOC)c(N)cc3[n+](CCC)c2c1 [compound 053]
- fluorescence of treated bacteria ([2]; strain CIP 76.25 (low NorA level)): intermediate levels of fluorescence
- fluorescence of treated bacteria ([2]; strain SA 1199 (low NorA level)): intermediate levels of fluorescence
- fluorescence of treated bacteria [2, 15]: almost nil
- fluorescence of treated bacteria ([2]; strain SA K1758 (NorA pump-free mutant)): high fluorescence
- colour of bacterial pellet ([3]; strain CIP 76.25 (reference, basal NorA)): Intermediate colors; also recorded: intermediate pale pink
- colour of bacterial pellet [3, 15]: No coloration; also recorded: white/off-white
- colour of bacterial pellet ([3]; strain SA K1758 (NorA deleted)): bright dark pink
- colour of bacterial pellet ([4]; DEL strain (PatA-PatB deleted)): dark pink
- colour of bacterial pellet ([4]; OVP strain (overexpressing PatA-PatB)): white
- colour of bacterial pellet ([4]; WT strain (basal PatA-PatB)): dark pink
- efflux differential between strains after fixation [5]: efflux differential between the different strains remains visible
- fluorescence of treated bacteria ([6]; overproducing strain (BmrA+++)): almost nil
- fluorescence of treated bacteria ([6]; wild-type strain (DSM 402)): intermediate levels of fluorescence
- fluorescence of treated bacteria [7]: very high
- colour of bacterial pellet ([8]; BmrA+++ (overexpressing BmrA)): white; also recorded: No coloration
- colour of bacterial pellet ([8]; wild-type B. subtilis 168 (DSM 402)): Intermediate pale pink
- colour of bacterial pellet [9]: dark pink
- visual distinction of strains by pellet staining [10]: visually possible to distinguish
- accumulation in cells (fluorescence intensity by flow cytometry) ([11]; NorA-overexpressing strain SA1199B): accumulated very little
- accumulation in cells (fluorescence intensity by flow cytometry) ([11]; norA-deleted strain SA K1758): accumulated heavily
- accumulation in cells (fluorescence intensity by flow cytometry) ([11]; reference strain SA): accumulated moderately
- accumulation in cells (fluorescence intensity by flow cytometry) ([11]; wild-type strain CIP 76.25): accumulated moderately

Structure (SMILES): CCCCCCCC[n+]1c2cc(NCCCC)ccc2nc2cc(NCCOC)c(N)cc21 [compound 392]
- staining of bacteria (pellet colour) [1, 12]: very pale pink
- staining of bacteria (pellet colour) ([1]; strain AG100A (acrAB deleted)): dark pink stain
- staining of bacteria (pellet colour) [1, 13]: unstained
- staining of bacteria (pellet colour) [1, 14]: very pale pink
